# Assay results from patent publication US10251937B2, “Retro-inverso analogs of spadin display increased antidepressant effects” (MEDINCELL, priority 2014, dated 2019).
# Square brackets hold non-standard residues; d marks the D form. Peptide text beside a SMILES is read from it.
# What was measured:
# C57Bl/6J mice [1] = test: Forced Swimming Test (FST) in naive mice; format: in vivo; settings: for immobility time, FST, duration of action: 10 naive animals
# Protocol: Naïve male C57Bl/6J mice from 7 to 9 weeks old were used in all experiments (Janvier laboratory). Mice were housed 10 animals per cage under a 12-h light/12-h dark cycle (light on at 8:00 am), in a ventilated room at a temperature of 22±1° C. Animals had free access to water and food (A03; SAFE, Augy, France). All experiments were conducted according to policies on the care and use of laboratory animals of the Society for Neuroscience, and also with respect to national laws on animal use. The local Ethics Committee (CIEPAL) approved the experiments.
# (§1) Stock solutions were prepared of 2 mg/mL (10^-3M) in distilled water, and before injection spadin solution was diluted in NaCl 0.9% to obtain the different concentrations used for treatments. Corticosterone (Sigma-Aldrich, France) was dissolved in drinking water at the concentration of 3.5 mg/L in the presence of 4.5 g/L of beta-cyclodextrin. […] Fluoxetine (Sigma-Aldrich, France) was dissolved in drinking water at the dose of 80 mg/L and administered during 21 days. For i.p. administration, fluoxetine (TEVA Santé, France) was dissolved in NaCl 0.9% at a concentration of 0.75 mg/mL. The amount injected was 3 mg/kg. Spadin and analogues were administered by i.v. injection. For acute treatment, drugs were administered in a single 100 μL bolus 30 min prior to the beginning of the behavioral tests. For subchronic treatment drugs were injected during 4 consecutive days and behavioral tests were performed on day 5, without additional injection.
# The animals were individually placed in a non-escapable cylinder (height 30 cm, diameter 15 cm) filled with 15 cm-water at 22±1° C. The trial was conducted for 6 min. The total period of immobility was manually measured during the last 4 min of the test. A mouse was considered immobile when it remained floating with only slight movements to keep its head above water.
# C57Bl/6J mice [2] = test: Novelty Suppressed Feeding (NSF) test; format: in vivo; settings: 10 μg/kg i.v. daily for 4 days, test on day 5
# Protocol: as §1
# The NSF paradigm is a two day test protocol. Day one, mice were deprived from food. Day two mice were placed in a highly brightly lit area, in a plastic box (45×45×20 cm), with a floor covered with wooden bedding. The test was carried out during a 10 min period; during this time the latency to eat was measured. During the test a single pellet of food was placed in the center of the box, on a white platform.
# C57Bl/6J mice [3] = test: Tail-immersion (tail flick) test, thermal pain; format: in vivo; settings: 10 μg/kg i.v., 30 min before test, n=10
# Protocol: Mice were i.v. injected with 10 μg/kg of spadin in a bolus of 100 μL or 100 μL of a saline solution (0.9% NaCl) 30 min before the beginning of the test. The tail was immersed in a water bath at 48° C. until withdrawal was observed (cut-off time: 30 s). Two separate withdrawal latency time determinations were averaged.
# C57Bl/6J mice [4] = test: Seizure induced by kainate; format: in vivo; settings: for effect against epilepsy seizure triggered by kainate: kainate 25 mg/Kg
# Protocol: Kainate solutions were prepared in a solution of 140 mM NaCl (saline solution). […] Mice (n=10 per group) were monitored during 2 h for onset and extent of seizures. Six levels of seizure severity were defined as follows: 1—immobility, 2—head/neck movements, 3—clonic unilateral activity, 4—clonic bilateral activity, 5—generalized convulsions, and 6—death. Seizure severity was blindly scored (Moha ou Maati, H. et al. A human TREK-1/HEK cell line: a highly efficient screening tool for drug development in neurological diseases. PLoS One 6, e25602, (2011)). The seizure index was calculated by averaging the points for seizure activity in each group (n=10 per treatment).
# [5] = target: hERG (human Ether a go-go Related Gene) current IKr (Homo sapiens, UniProt Q12809); test: Cardiac IKr (hERG) current, whole cell patch clamp in transfected HEK cells
# hERG (human Ether a go-go Related Gene) current IKr, sequence (Q12809 whole entry): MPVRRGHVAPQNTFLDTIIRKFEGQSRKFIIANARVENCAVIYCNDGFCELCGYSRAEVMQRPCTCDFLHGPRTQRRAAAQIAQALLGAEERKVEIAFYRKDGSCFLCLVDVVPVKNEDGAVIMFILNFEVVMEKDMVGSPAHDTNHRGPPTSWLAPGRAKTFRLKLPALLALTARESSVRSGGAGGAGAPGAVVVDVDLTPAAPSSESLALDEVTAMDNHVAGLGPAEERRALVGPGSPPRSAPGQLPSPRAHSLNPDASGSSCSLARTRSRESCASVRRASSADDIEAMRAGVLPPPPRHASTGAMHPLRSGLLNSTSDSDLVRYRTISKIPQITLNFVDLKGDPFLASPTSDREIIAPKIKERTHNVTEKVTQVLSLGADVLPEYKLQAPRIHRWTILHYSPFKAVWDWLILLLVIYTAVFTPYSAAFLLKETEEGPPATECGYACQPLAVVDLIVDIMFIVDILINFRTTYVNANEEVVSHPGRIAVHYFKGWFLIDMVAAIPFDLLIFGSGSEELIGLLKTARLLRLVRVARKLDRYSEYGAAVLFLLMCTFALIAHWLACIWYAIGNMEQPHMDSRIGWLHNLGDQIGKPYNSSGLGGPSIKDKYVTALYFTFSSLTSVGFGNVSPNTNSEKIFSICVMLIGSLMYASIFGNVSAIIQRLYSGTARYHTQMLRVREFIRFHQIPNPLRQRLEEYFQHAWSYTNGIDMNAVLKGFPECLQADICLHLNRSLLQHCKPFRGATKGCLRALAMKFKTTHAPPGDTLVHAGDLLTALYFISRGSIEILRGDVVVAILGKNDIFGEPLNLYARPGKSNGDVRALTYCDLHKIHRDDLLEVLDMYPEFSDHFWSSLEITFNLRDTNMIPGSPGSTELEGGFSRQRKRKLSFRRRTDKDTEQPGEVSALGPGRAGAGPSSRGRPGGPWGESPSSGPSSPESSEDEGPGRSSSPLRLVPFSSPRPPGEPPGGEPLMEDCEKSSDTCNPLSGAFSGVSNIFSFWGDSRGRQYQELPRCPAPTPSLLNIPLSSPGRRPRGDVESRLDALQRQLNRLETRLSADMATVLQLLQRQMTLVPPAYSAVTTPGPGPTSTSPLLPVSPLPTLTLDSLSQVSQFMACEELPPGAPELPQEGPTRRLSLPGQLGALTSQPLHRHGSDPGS
# Protocol: HEK-293 native cells were grown in serum in an atmosphere of 95% air/5% CO2 in Dulbecco's modified Eagle's medium supplemented with 10% (v/v) heat inactivated fetal bovine containing 1% (v/v) of penicillin/streptomycin and Glutamax×1. Cells were plated at a density of 20000 cells/35 mm dish and after 24 h cells were transfected using the JetPEI® method (Polyplus, France) with 25 ng/35 mm dish of p-IRES-HERG channel vector. Patch clamp experiments were carried out 48 h after transfection
# All electrophysiological recordings were performed in whole cell configuration of the patch clamp technique. Each current was evaluated by using a RK 400 patch clamp amplifier (Axon Instrument, USA), low-pass filtered at 3 kHz and digitized at 10 kHz using a 12-bit analog-to-digital converter digidata (1322 series, Axon Instrument, USA). All current amplitudes are expressed in current densities. Results were expressed as mean±standard error of the mean (SEM). […] The bath solution contained 150 mM NaCl, 5 mM KCl, 3 mM MgCl2, 1 mM CaCl2 and 10 mM HEPES adjusted to pH 7.4 with NaOH. The pipette solution contained 155 mM KCl, 3 mM MgCl2, 5 mM EGTA and 10 mM HEPES adjusted to pH 7.2 with KOH. […] All experiments were performed at room temperature (21-22° c.). Stimulation protocols and data acquisition were carried out using a microcomputer (Dell Pentium) with a commercial software and hardware (pClamp 8.2). Currents were recorded by voltage clamp steps to membrane potentials of −100 to +60 mV in 20 mV steps applied from a holding potential of −80 mV. Duration of depolarization pulses were 0.825 ms, and the pulse cycling rate was 5 sec. […] Cells were continuously superfused with a microperfusion system. […] Tail currents were generated by repolarization to −40 mV. […] IKR currents were activated by voltage clamp steps of membrane potentials from −100 to +100 mV in 10 mV steps applied from a holding potential of +80 mV and tail currents were generated by a repolarization to +40 mV. […] The amplitudes of IKS and IKR currents were calculated at both the end of the first pulse and the peak of the tail pulse.
# [6] = 0 mV, in the presence of 10 μM, n=5
compound,measurement,setting,value
"CC[C@@H](C)[C@@H](NC(=O)CNC(=O)[C@H](NC(=O)[C@@H](CO)NC(=O)[C@@H](Cc1c[nH]c2ccccc12)NC(=O)CNC(=O)[C@@H](CC(C)C)NC(=O)[C@@H](CCCNC(=N)N)NC(C)=O)C(C)C)C(=O)N1CCC[C@@H]1C(=O)NCC(=O)N[C@H](CO)C(=O)N[C@H](Cc1c[nH]c2ccccc12)C(=O)N[C@H](CCCNC(=N)N)C(=O)N1CCC[C@@H]1C(=O)N[C@H](CC(C)C)C(=O)N1CCC[C@@H]1C(=O)N[C@H](C)C(N)=O [Analog 3, Ac-rlGwsvGipGswrplpa-NH2] (Ac-[dR][dL]G[dW][dS][dV]G[dI][dP]G[dS][dW][dR][dP][dL][dP][dA]-NH2)","immobility time, FST, acute treatment","C57Bl/6J mice [1]; 10 μg/kg acute i.v., measured 30 minutes after injection, n=10",135.10 ± 8.11 s
same,"immobility time, FST, subchronic treatment","C57Bl/6J mice [1]; 10 μg/kg i.v. once a day for 4 days, test on day 5",114.9 ± 9.82 s
same,"immobility time, FST, duration of action",C57Bl/6J mice [1]; 1 hour after i.v. injection,123.4 ± 7.0 s
same,"immobility time, FST, duration of action",C57Bl/6J mice [1]; 16 hours after i.v. injection,129.6 ± 12.7 s
same,duration of activity in vivo compared to Analog 8,C57Bl/6J mice [1]; FST (FIG. 4B),active for longer duration in vivo
same,"latency to feed, NSF",C57Bl/6J mice [2],143.88 ± 23.42 s
same,tail withdrawal time,C57Bl/6J mice [3],11.32 ± 1.04 s
same,effect against epilepsy seizure triggered by kainate,C57Bl/6J mice [4]; 1 μg/Kg i.v.,no protective effect
same,effect against epilepsy seizure triggered by kainate,C57Bl/6J mice [4]; 10 μg/Kg i.v.,important protective effect
same,"mice among 10 that reached the two less severe stages of epilepsy seizures (immobility, head or neck movements)","C57Bl/6J mice [4]; 10 μg/Kg i.v., kainate 25 mg/Kg i.p.",two
same,IKr current density at end of first pulse,[5]; [6],224.48±35.94 pA/pF
same,IKr tail current density,[5]; [6],212.99±38.38 pA/pF
same,effect on currents generated by IKr channels expressed in HEK cells,[5]; 10 μM,did not modify currents
